The text below walks through data of PMC9820430, “New Affordable Methods for Large-Scale Isolation of Major Olive Secoiridoids and Systematic Comparative Study of Their Antiproliferative/Cytotoxic Effect on Multiple Cancer Cell Lines of Different Cancer Origins” (International Journal of Molecular Sciences, 2022).

Where two headings read alike, the source gives them in different places. Some results are limits rather than exact numbers.

Series [1] has as its system MCF-7. The series is described as follows: EdU incorporation cell proliferation assay, 24 h. It is filed as cell-based, human. The following applies: for % EdU +ve ± SE (S-phase cells): 24 h treatment at EC50 concentration.
Procedure: For this purpose, ten cancer cell lines (i.e., MDA-MB 231, SK-BR-3, MCF-7, A2058, SK-MEL-28, AGS, HepG-2, PANC-1, H1299 and Hela) originating from breast, melanoma, stomach, hepatic, pancreatic, lung and cervical tumors were analyzed in parallel with control samples (i.e., the same cells treated only with 0.2% (v/v) DMSO). […] Subsequently, the treated cells were allowed to incorporate 5-ethynyl-2′-deoxyuridine (EdU) into replicating DNA according to the protocol described in detail in the Experimental Section. […] In this study, after EdU incorporation, the nuclei of the entire cell population were stained with Hoechst and imaged by confocal microscopy (Experimental Section). EdU-positive nuclei, marked by green FL, as well as the total number of nuclei, marked by blue FL, were enumerated by applying the Icy image analysis algorithm on the digital images acquired by confocal microscopy.
Series [2] concerns A2058. As to the kind of experiment: EdU incorporation cell proliferation assay, 24 h. The following applies: for % EdU +ve ± SE (S-phase cells): 24 h treatment at EC50 concentration. It is filed as cell-based, human. The protocol:
For this purpose, ten cancer cell lines (i.e., MDA-MB 231, SK-BR-3, MCF-7, A2058, SK-MEL-28, AGS, HepG-2, PANC-1, H1299 and Hela) originating from breast, melanoma, stomach, hepatic, pancreatic, lung and cervical tumors were analyzed in parallel with control samples (i.e., the same cells treated only with 0.2% (v/v) DMSO). […] Subsequently, the treated cells were allowed to incorporate 5-ethynyl-2′-deoxyuridine (EdU) into replicating DNA according to the protocol described in detail in the Experimental Section. EdU, a thymidine analog, can be incorporated into DNA in vivo and detected later by using copper-catalyzed azide–alkyne cycloaddition (click reaction) without prior DNA denaturation. The pool of cells in the S phase can be then easily detected by fluorescence (FL) microscopy or by flow cytometry by analyzing the incorporation of EdU in replicating DNA of single cells. In this study, after EdU incorporation, the nuclei of the entire cell population were stained with Hoechst and imaged by confocal microscopy (Experimental Section). EdU-positive nuclei, marked by green FL, as well as the total number of nuclei, marked by blue FL, were enumerated by applying the Icy image analysis algorithm on the digital images acquired by confocal microscopy.
Human cancer cells were plated onto sterile glass coverslips (10-mm diameter, 5161063, ThermoFisher Scientific, Waltham, MA, USA) in 24-well tissue culture plates, at a density 5 times the density of cells seeded in 96-well plate and at a final medium volume of 500 μL. In order to obtain homogeneous plating, 250 μL of the medium was added directly to the wells already containing coverslips. Using a tip perpendicularly, coverslips were pressed in order to ensure their attachment to the bottom of the well. The cells were then seeded by adding 250 μL of single-cell suspension drop by drop following a cross path. Immediately after seeding, the plate was shaken back and forth at least ten times to achieve homogeneous plating. The cells were allowed to adhere overnight (~16 h) at 37 °C and 5% (v/v) CO2. The next day, a volume of 500 μL fresh medium was added to each well and the treatment with OOPs was initiated by adding directly to the wells 2 μL of OOPs from the 500× stock in DMSO and immediately mixed afterward by pipetting. […] Control cells were prepared under the same experimental conditions using DMSO instead of the OOPs’ solutions in DMSO at the same final concentration (0.2% (v/v) DMSO). […] Each condition was performed in duplicate. After treatment with the OOPs, live proliferating mammalian cells were labeled with 5-ethynyl-2’-deoxyuridine (EdU), a nucleoside analog of thymidine, using the Cell proliferation kit III (EdU-FM, PK-CA724-488FM, Promokine, Heidelberg, Germany). More specifically, a 20 μM EdU solution from a 10 mM stock in DMSO was prepared in a fresh culture medium. Culture supernatant was removed from treated cells to leave only 250 μL. An equal volume of 20 μM EdU solution was added and mixed with the medium to obtain a 10 μΜ EdU final concentration. The treated cells were incubated for the desired time of pulse length (2–4 h) under conditions optimal for each cell type depending on each cell line’s doubling time. Following incubation, cells were washed twice with PBS, then fixed with 4% (w/v) paraformaldehyde in PBS for 15 min at room temperature (RT), and subsequently washed twice with 3% (w/v) BSA for 5 min each time. Cells were permeabilized by incubation (20 min, RT, in the dark) with 0.5% (v/v) Triton-X 100 in PBS. Following permeabilization the cells were washed twice with 3% (w/v) BSA in PBS and incubated for 30 min with the reaction cocktail, according to the instructions of the Cell proliferation kit III (EdU-488; FM). After staining for replicating DNA, the cells were washed three times with 3% (w/v) BSA in PBS, and were then incubated (10 min, at RT) with Hoechst 33342 in PBS (1:10.000) to visualize all the nuclei. […]

Series [3] has as its system MDA-MB 231. As to the kind of experiment: ATP assay under 1% (v/v) O2 versus 20% (v/v) O2, 72 h. The conditions noted are these: 1% (v/v) O2 vs 20% (v/v) O2. It is filed as cell-based, human. The method, then: The effects of drugs on cancer cell lines are usually tested under atmospheric conditions (20% (v/v) O2). However, the O2 content in tissues (normoxia) and solid tumors (hypoxia) is ≤ 5% (v/v). In some tumors (i.e., pancreatic tumors) the % O2 is even ≤ 1% (v/v). This affects cell metabolism and signaling pathways which depend on the hypoxia-induced Factor 1A (HIF1A) and it could affect the activity of certain drugs. […] The effects of these three OOPs were tested on the MDA-MB 231, SK-BR-3 and MCF-7 breast cancer and on the AGS stomach cancer cell lines.
Figure 6 Effect of O2 concentration on the antiproliferative/cytotoxic effect of OOPs. […] Cell viability was determined on (A) AGS, (B) MDA-MB 231, (C) MCF-7 and (D) SK-BR-3 cell lines using ATP-based luminescence assay. The results presented are from two independent experiments performed in triplicate. Bar graphs represent the mean cell count ± SE in each treatment group normalized to the control group (i.e., cells treated only with 0.2% (v/v) DMSO). * p < 0.05; ** p ≤ 0.01; *** p ≤ 0.001 (t-test) comparing the two different conditions.

Series [4] relates to MCF-7. The following applies: cited from earlier work.
Series [5] relates to SK-BR-3 cells. As to the kind of experiment: Deactivation in culture medium (direct addition vs pre-incubation), ATP assay 48 h. It is filed as cell-based, human. The following applies: 20 and 40 μM, 15 min pre-incubation in culture medium vs direct addition. The protocol: The other OOPs tested were not affected similarly (Figure S3B). […] It was therefore decided for all the experiments presented in this manuscript and the assays performed to calculate the EC50 values to add all the OOPs tested directly to the culture medium.
Viable cell numbers were determined using the ATP-based luminescence assay after 48 h of treatment. The compound was added to the cells either directly or after incubation with the culture medium for 15 min. The results presented are from four independent experiments performed in triplicate. Bar graphs represent the mean cell count ± SE in each treatment group normalized to the control group (i.e., cells treated only with 0.2% (v/v) DMSO). * p < 0.05; ** p ≤ 0.01 (t-test) comparing the two different treatment methods.

In series [6] the test system is A375 cells. Set-up: method as in PMID 35630786. The conditions noted are these: 72 h treatment; cited from earlier work.
For series [7], the system named is Caco-2 cells. The following applies: cited from earlier work.
For series [8], the system named is Hela cells. The following applies: cited from earlier work.
Series [9] deals with HaCaT cells. Details: method as in PMID 27878290, PMID 35630786. The conditions noted are these: cited from earlier work.
The mark [10] stands for this setting: 24 h at EC50, normalized with the control.

For the compound `COC(=O)C1=COC(C)[C@@H](C=O)[C@@H]1CC(=O)OCCc1ccc(O)c(O)c1` (mixture of isomers) [3a,b, oleuropein aglycone], the “% Inhibition ± SE of cell proliferation” value in [1] (setting [10]) is on record as 19.3 ± 0.5%; in series [2] (setting [10]) it was 15.0 ± 10.3%. Further, the “% EdU +ve ± SE (S-phase cells)” value in series [1] amounted to 21.1 ± 2.0%; in [2], 23.7 ± 5.8%. The “bioactivity under hypoxia versus atmospheric O2” value in series [3] is “more resistant”. The EC50 in [4] (five days of treatment, ref Menendez et al. (2007) 17, read-out: concentration reducing cell viability by 50%) is above 100 µM.
As for `C/C=C(/C=O)[C@@H](CC=O)CC(=O)OCCc1ccc(O)cc1` [compound 1, oleocanthal], the results for the “% EdU +ve ± SE (S-phase cells)” value in series [1] and in series [2] were 21.6 ± 4.0% and 25.5 ± 5.3%, respectively. For the same compound, the “stability/deactivation in the cell culture medium” value in series [5] is given as “partially deactivated”. For the same compound, the EC50 is 18 to 40 µM in series [4] (48 or 72 h, different culture conditions, read-out: EC50); 67.5 ± 1.9 µM in series [6]; above 150 µM in series [7]; above 150 µM in series [8]. Further, the “sensitivity of cells to treatment” value in series [9] is on record as “resistant”.
For the compound ligstroside aglycone [4a,b], the “bioactivity under hypoxia versus atmospheric O2” value in series [3] was “more resistant”.
For `C/C=C(/C=O)[C@@H](CC=O)CC(=O)OCCc1ccc(O)c(O)c1` [compound 2, oleacein], the EC50 in [6] was 113 ± 4.9 µM. Also, in series [9], the “sensitivity of cells to treatment” value is “resistant”.
